Data from BindingDB's records for patent US20240343694 (Korea Reserarch Institute of Chemical Technology, 2024).

Experiments:
[1] = molecular target: T1, Receptor tyrosine-protein kinase erbB-2 [1-775,'YVMA',776-1255] (Homo sapiens, UniProt P04626); assay: Inhibitory Activity of Compounds Against HER2 A775_G776insYVMA mutant enzyme
T1 construct: 1-775,'YVMA',776-1255
Experimental: The activity of the compounds of the present invention against HER mutant enzymes was measured using the HTRF system purchased by Cisbio as follows. As a HER2 mutant enzyme, the HER2 A775_G776insYVMA mutant enzyme was used by purchasing a recombinant protein provided by Carna Biosciences.The composition of the assay buffer used for activity measurement was 50 mM tris-HCl pH 7.5, 100 mM NaCl, 7.5 mM MgCl2, 3 mM KCl, 0.01% tween 20, 0.1% BSA, and 1 mM DTT. In addition thereto, the enzymatic reaction was performed using a peptide substrate labeled with ATP at a concentration of […] and biotin at a concentration of […]. The analysis of the activity inhibitory effect of the compounds on HER2 A775_G776insYVMA mutation was performed according to the following method.Component 1:4 μL of HER2 A775_G776insYVMA mutant enzymeComponent 2:2 μL of compound solutionComponent 3:4 μL of ATP and a biotin labeled peptideThe enzyme reaction begins by first mixing component 1 and component 2 and then adding component 3 thereto. After the reaction at 37° C. for 2 hours, […] of a measurement solution consisting of streptavidin-XL665 and a europium-labeled anti-phosphotyrosine antibody purchased from Cisbio was added to the enzyme reaction solution and reacted at room temperature for 1 hour. Finally, the ratio of fluorescence values at 615 nm and 665 nm was measured using Perkin-Elmer's Envision equipment to calculate enzyme activity and confirm the inhibitory ability of the compounds.

[2] = molecular target: T2, Epidermal growth factor receptor [1-763,'FHEA',764-1210] (UniProt P00533); assay: Inhibitory Activity of Compounds Against EGFR Mutant Enzyme
T2 construct: 1-763,'FHEA',764-1210
T2 sequence (P00533 with tags, fused parts or gaps INS763FHEA limits assumed): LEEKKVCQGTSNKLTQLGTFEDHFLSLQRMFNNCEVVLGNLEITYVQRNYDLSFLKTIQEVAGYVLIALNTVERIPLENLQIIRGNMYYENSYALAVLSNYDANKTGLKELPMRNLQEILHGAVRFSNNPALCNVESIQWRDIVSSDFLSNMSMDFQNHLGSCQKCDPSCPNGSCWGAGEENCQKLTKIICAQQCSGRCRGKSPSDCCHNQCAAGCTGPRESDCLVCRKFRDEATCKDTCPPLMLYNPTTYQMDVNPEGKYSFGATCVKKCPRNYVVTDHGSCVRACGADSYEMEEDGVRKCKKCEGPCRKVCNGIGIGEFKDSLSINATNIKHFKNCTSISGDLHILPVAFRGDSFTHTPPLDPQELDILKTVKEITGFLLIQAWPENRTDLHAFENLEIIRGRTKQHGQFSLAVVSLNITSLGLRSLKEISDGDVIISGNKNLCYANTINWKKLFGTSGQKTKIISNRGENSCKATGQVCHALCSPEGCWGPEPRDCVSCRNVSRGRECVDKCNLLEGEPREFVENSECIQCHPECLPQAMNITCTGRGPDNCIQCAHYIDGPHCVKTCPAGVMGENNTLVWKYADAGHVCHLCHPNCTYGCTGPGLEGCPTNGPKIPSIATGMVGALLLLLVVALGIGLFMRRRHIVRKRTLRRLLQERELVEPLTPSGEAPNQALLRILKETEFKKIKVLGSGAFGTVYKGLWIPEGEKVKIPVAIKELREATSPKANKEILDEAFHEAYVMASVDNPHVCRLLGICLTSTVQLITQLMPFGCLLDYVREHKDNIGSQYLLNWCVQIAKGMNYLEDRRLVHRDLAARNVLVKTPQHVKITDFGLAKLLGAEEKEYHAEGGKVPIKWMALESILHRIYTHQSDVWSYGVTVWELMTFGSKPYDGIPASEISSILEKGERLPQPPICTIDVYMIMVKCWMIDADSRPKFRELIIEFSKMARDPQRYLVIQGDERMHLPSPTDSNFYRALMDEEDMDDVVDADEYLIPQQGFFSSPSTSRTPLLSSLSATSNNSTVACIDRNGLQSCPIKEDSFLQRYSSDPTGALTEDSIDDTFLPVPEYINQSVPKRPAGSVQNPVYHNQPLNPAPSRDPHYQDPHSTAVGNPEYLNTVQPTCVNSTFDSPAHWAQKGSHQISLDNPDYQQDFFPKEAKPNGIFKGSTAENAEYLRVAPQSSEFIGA
Experimental: (§1) The activity of the compounds of the present invention against EGFR mutant enzymes was measured using the HTRF system purchased from Cisbio as follows. For an EGFR mutant enzyme, the EGFR del19 enzyme was a recombinant protein purchased from Carna Biosciences, and the EGFR A763_Y764insFHEA enzyme was a recombinant protein purchased from SignalChem, respectively.The composition of the assay buffer used for activity measurement was 50 mM tris-HCl pH 7.5, 100 mM NaCl, 7.5 mM MgCl2, 3 mM KCl, 0.01% tween 20, 0.1% BSA, and 1 mM DTT. An enzymatic reaction was performed using a peptide substrate labeled with ATP at a concentration of […] and biotin at a concentration of […]. The analysis of the inhibitory effect of the compounds on EGFR activity was performed according to the following method.Component 1:4 μL of EGFR mutant enzymeComponent 2:2 μL of compound solutionComponent 3:4 μL of ATP and a biotin labeled peptideThe enzyme reaction begins by first mixing component 1 and component 2 and then adding component 3 thereto. After the reaction at 37° C. for 2 hours, […] of a measurement solution consisting of streptavidin-XL665 and a europium-labeled anti-phosphotyrosine antibody purchased from Cisbio was added to the enzyme reaction solution and reacted at room temperature for 1 hour. Finally, the ratio of fluorescence values at 615 nm and 665 nm was measured using Perkin-Elmer's Envision instrument to calculate enzyme activity and confirm the inhibitory ability of the compounds.

[3] = molecular target: T3, Epidermal growth factor receptor [DEL746-750] (Homo sapiens, UniProt P00533); assay: as above
T3 construct: gene EGFR
T3 sequence (P00533 with tags, fused parts or gaps DEL746-750 limits assumed, stated change not applied): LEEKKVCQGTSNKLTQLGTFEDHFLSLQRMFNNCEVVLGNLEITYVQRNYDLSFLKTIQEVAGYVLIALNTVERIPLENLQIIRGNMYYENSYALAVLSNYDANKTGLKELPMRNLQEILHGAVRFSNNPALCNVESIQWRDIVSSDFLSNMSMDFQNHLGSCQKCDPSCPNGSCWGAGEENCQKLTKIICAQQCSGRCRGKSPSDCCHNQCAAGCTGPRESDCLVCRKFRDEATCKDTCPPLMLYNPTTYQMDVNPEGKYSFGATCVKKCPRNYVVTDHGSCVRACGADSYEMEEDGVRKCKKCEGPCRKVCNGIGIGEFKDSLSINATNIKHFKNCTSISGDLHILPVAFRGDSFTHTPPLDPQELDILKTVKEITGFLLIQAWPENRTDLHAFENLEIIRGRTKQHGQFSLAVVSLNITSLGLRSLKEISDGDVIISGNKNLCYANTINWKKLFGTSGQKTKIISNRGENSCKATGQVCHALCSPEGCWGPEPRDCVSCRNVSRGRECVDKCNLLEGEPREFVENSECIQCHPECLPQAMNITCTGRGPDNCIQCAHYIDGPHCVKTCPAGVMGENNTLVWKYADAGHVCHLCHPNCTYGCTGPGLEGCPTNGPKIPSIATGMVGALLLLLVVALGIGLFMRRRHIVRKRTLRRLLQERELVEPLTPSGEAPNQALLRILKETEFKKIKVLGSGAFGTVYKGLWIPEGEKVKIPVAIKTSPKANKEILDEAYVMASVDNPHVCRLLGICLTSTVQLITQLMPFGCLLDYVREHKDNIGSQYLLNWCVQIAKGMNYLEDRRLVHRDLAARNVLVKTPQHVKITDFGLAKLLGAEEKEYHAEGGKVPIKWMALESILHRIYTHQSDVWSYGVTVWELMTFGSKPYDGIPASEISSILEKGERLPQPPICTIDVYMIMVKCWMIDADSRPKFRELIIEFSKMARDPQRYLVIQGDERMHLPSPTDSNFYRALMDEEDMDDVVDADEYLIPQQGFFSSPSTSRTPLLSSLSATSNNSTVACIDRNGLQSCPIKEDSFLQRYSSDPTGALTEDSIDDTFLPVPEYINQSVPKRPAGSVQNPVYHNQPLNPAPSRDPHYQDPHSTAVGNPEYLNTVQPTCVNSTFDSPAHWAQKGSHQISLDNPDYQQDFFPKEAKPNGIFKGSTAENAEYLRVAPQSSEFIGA
Experimental: as §1

[4] = molecular target: T4, Epidermal growth factor receptor [DEL746-750] (Homo sapiens, UniProt P00533, DEL746-750); assay: as above
T4 construct: gene EGFR
T4 sequence (P00533 with tags, fused parts or gaps DEL746-750 limits assumed): as the sequence (P00533 with tags, fused parts or gaps DEL746-750 limits assumed, stated change not applied) above
Experimental: as §1

T1 sequence (P04626 with tags, fused parts or gaps INS775YVMA limits assumed): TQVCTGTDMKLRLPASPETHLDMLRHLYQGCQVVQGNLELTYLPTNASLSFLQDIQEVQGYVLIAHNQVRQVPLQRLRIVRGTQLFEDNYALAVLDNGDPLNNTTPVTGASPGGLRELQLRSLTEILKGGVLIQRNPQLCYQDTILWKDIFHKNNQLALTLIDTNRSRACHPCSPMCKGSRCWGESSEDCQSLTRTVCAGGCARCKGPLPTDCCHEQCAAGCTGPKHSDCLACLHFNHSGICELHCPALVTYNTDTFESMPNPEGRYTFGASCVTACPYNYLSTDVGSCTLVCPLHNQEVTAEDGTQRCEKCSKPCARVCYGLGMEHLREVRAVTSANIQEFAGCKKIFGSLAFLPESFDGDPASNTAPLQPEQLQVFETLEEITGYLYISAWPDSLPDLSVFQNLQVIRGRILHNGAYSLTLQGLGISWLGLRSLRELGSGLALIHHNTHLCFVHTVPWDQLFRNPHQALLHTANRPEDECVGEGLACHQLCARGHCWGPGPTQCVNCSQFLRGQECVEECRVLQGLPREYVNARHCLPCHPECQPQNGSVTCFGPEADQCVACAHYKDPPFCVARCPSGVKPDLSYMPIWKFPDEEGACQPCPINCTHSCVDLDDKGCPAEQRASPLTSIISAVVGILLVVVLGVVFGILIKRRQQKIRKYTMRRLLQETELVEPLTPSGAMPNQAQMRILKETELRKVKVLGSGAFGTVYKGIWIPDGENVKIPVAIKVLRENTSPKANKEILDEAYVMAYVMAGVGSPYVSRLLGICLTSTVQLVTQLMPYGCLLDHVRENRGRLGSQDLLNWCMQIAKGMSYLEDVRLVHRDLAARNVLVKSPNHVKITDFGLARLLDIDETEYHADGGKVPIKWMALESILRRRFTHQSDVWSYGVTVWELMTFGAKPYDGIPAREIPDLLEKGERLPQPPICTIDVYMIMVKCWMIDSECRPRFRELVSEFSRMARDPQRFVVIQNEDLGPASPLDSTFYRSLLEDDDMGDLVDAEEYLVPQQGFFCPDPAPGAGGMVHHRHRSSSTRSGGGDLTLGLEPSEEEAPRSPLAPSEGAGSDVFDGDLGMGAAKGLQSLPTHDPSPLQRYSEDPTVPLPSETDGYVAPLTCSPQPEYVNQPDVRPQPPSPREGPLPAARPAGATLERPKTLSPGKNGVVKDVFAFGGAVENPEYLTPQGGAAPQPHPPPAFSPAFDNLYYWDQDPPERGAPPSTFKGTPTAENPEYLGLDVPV

| Structure (SMILES) | IC50 [1] [nM] | IC50 [2] [nM] | IC50 [3] [nM] | IC50 [4] [nM] |
| --- | --- | --- | --- | --- |
| C=CC(=O)Nc1cc(Nc2ncc(Cl)c(Nc3cccc4c3N(S(C)(=O)=O)CC4)n2)c(OC)cc1N(C)CCN(C)C(=O)OC(C)(C)C [US20240343694, Example 67] | 81 | < 1 | < 1 |  |
| COC(=O)c1cnc(Cl)nc1Nc1cccc2c1N(S(C)(=O)=O)CC2 [US20240343694, Example 68] | 6 | < 1 | < 1 |  |
| CC(C)OC(=O)c1cnc(Cl)nc1Nc1cccc2c1N(S(C)(=O)=O)CC2 [US20240343694, Example 69] | 6 | < 1 |  | < 1 |
| CS(=O)(=O)N1CCc2cccc(Nc3nc(Cl)ncc3C#N)c21 [US20240343694, Example 70] | 33 | 4 | < 1 |  |
| C=CC(=O)Nc1cc(N)c(OC)cc1OCCN(C)C [US20240343694, Example 71] | 61 | 5 | < 1 |  |
| CS(=O)(=O)N1CCc2cccc(Nc3nc(Cl)ncc3C(F)(F)F)c21 [US20240343694, Example 73] | 5 | < 1 | < 1 |  |
| CS(=O)(=O)n1ccc2cccc(Nc3nc(Cl)ncc3Cl)c21 [US20240343694, Example 74] | < 1 | < 1 | < 1 |  |
| CN(c1c(Nc2nc(Cl)ncc2Cl)ccc2nccnc12)S(C)(=O)=O [US20240343694, Example 75] | 3 | < 1 | < 1 |  |
| CS(=O)(=O)Nc1c(Nc2nc(Cl)ncc2Cl)ccc2nccnc12 [US20240343694, Example 76] | 1 | < 1 | < 1 |  |
| O=S1(=O)CCCN1c1ccccc1Nc1nc(Cl)ncc1Cl [US20240343694, Example 77] | 2 | < 1 | < 1 |  |
| O=S1(=O)CCCCN1c1ccccc1Nc1nc(Cl)ncc1Cl [US20240343694, Example 78] | 3 | < 1 | < 1 |  |
| C=CC(=O)Nc1cc(N)c(OC)cc1N(C)CCN1CCN(C)CC1 [US20240343694, Example 79] | 1 | < 1 | < 1 |  |
| C=CC(=O)Nc1cc(N)c(OC)cc1OCCN1CCOCC1 [US20240343694, Example 80] | 1 | < 1 | < 1 |  |
| C=CC(=O)Nc1cc(N)c(OC)cc1OCCN1CCCCC1 [US20240343694, Example 81] | < 1 | < 1 | < 1 |  |
| C=CC(=O)Nc1cc(N)c(OC)cc1N(C)CCN1CCC1 [US20240343694, Example 82] | 2 | < 1 | < 1 |  |
| CC(=O)Nc1c([N+](=O)[O-])ccc(C)c1C [US20240343694, Example 83] | 374 | 19 | 3 |  |
| CC(=O)N(C)c1c([N+](=O)[O-])ccc(C)c1C [US20240343694, Example 84] | 52 | 3 | 1 |  |
| CC(=O)N(C)c1c(N)ccc(C)c1C [US20240343694, Example 85] | 871 | 43 | 18 |  |
| CC(=O)N(C)c1c(Nc2nc(Cl)ncc2Cl)ccc(C)c1C [US20240343694, Example 86] | 157 | 20 | 2 |  |
| CC(=O)Nc1c(Nc2nc(Cl)ncc2Cl)ccc(C)c1C [US20240343694, Example 87] | 107 | 24 | 4 |  |
| CC(=O)N(C)c1c(C)cccc1Nc1nc(Cl)ncc1Cl [US20240343694, Example 88] | 14 | 2 | < 1 |  |
| CC(=O)Nc1c(C)cccc1Nc1nc(Cl)ncc1Cl [US20240343694, Example 89] | 479 | 77 | 20 |  |
